Where a name gives a salt, the structure may show the parent alone.
Experiments:
interferon (α) = test: Cytokine induction in human cells: interferon secreted by PBMCs, ELISA; assay type: cell-based; conditions: PBMC, incubated 18 to 24 hours, interferon determined by ELISA, read-out: Lowest Effective Concentration (μM) Interferon
Summary of the method: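 Human donor PBMCs at 1.5-2×10^6 cells/mL final in RPMI with 10% FBS, exposed to serially diluted compound (≤1% DMSO) for 18–24 h at 37 °C, 5% CO2. Supernatant interferon (α) measured by ELISA; value is lowest concentration inducing interferon.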

[1] = tested on: tumor necrosis factor (α); test: Cytokine induction in human cells: tumor necrosis factor (α) secreted by PBMCs, ELISA; assay type: cell-based; conditions: PBMC, incubated 18 to 24 hours, TNF determined by ELISA, read-out: Lowest Effective Concentration (μM) Tumor Necrosis Factor
Summary of the method: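 Human donor PBMCs at final 1.5-2×10^6 cells/mL in RPMI with 10% FBS incubated 18 to 24 h at 37° C. with serially diluted compound, DMSO at most 1% final. Supernatant TNF-α measured by ELISA; value is the lowest concentration inducing TNF.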

Structure (SMILES) | melting point | minimal effective concentration (interferon (α)) [µM] | minimal effective concentration [1] [µM]
CCOCc1nc2c(N)nc3ccccc3c2n1CCNC(=O)CCCCC1SCC2NC(=O)NC21 (stereo not drawn) (as salt: trifluoroacetate) [Example 29, N^1-[2-(4-Amino-2-(ethoxymethyl)-1H-imidazo[4,5-c]quinolin-1-yl)ethyl]-5-(2-oxoperhydrothieno[3,4-d]imidazol-4-yl)pentanamide Ditrifluoroacetate] | 171 to 175 °C |  | 
CCCCc1ccc(C(=O)NCCCCn2c(CCOC)nc3c(N)nc4ccccc4c32)nc1 [Example 58, N^2-{4-[4-Amino-2-(2-methoxyethyl)-1H-imidazo[4,5-c]quinolin-1-yl]butyl}-5-butyl-2-pyridinecarboxamide] | 54.9 to 55.2 °C |  | 
COCCc1nc2c(N)nc3ccccc3c2n1CCCCNC(=O)c1c[nH]c2ccccc12 [Example 59, N^3-{4-[4-Amino-2-(2-methoxyethyl)-1H-imidazo[4,5-c]quinolin-1-yl]butyl}-3-indolecarboxamide] | 225.5 to 227.4 °C |  | 
COCCc1nc2c(N)nc3ccccc3c2n1CCCCNC(=O)c1ccc(-n2cccc2)cc1 [Example 60, N^1-{4-[4-Amino-2-(2-methoxyethyl)-1H-imidazo[4,5-c]quinolin-1-yl]butyl}-4-(1-pyrrolyl)benzamide] | 173 to 174.9 °C |  | 
COc1ccc(Cc2nc3c(N)nc4ccccc4c3n2CCCCNC(=O)c2ccc3ccccc3n2)cc1 [Example 61, N^2-{4-[4-Amino-2-(4-methoxybenzyl)-1H-imidazo [4,5-c]quinolin-1-yl]butyl}-2-quinolinecarboxamide] | 95.1 to 97.4 °C |  | 
COCCc1nc2c(N)nc3ccccc3c2n1CCCCNC(=O)c1cncc(C#Cc2ccccc2)c1 [Example 65, N^5-{4-[4-Amino-2-(2-methoxyethyl)-1H-imidazo[4,5-c]quinolin-1-yl]butyl}-5-(2-phenyl-1-ethynyl)nicotinamide] | 76 to 78 °C |  | 
COc1ccc(CN(CCCCn2cnc3c(N)nc4ccccc4c32)C(C)=O)c(OC)c1OC [Example 145] |  | 1.11 | > 30
COc1cc(CN(CCCCn2cnc3c(N)nc4ccccc4c32)C(C)=O)cc(OC)c1OC [Example 146] |  | 3.33 | > 30
COCCc1nc2c(N)nc3ccccc3c2n1CCCCNC(=O)C=C(C)C [Example 148] |  | 0.01 | 1
COCCc1nc2c(N)nc3ccccc3c2n1CCCCNC(=O)C1CCCC1 [Example 149] |  | 0.001 | 1
COCCc1nc2c(N)nc3ccccc3c2n1CCCCNC(=O)C1CCCCC1 [Example 150] |  | 0.001 | 0.1
COCCc1nc2c(N)nc3ccccc3c2n1CCCCNC(=O)c1ccccc1C [Example 151] |  | 0.0001 | > 10
COCCc1nc2c(N)nc3ccccc3c2n1CCCCNC(=O)[C@@H]1C[C@H]1c1ccccc1 [Example 153] |  | 0.0001 | 0.1
COCCc1nc2c(N)nc3ccccc3c2n1CCCCNC(=O)c1cccc2ccccc12 [Example 154] |  | 0.0001 | > 10
COCCc1nc2c(N)nc3ccccc3c2n1CCCCNC(=O)c1ccc(C(C)(C)C)cc1 [Example 156] |  | 0.001 | 1
COCCc1nc2c(N)nc3ccccc3c2n1CCCCNC(=O)c1ccc(OC)c(OC)c1 [Example 158] |  | 0.001 | 1
COCCc1nc2c(N)nc3ccccc3c2n1CCCCNC(=O)CCCCCCC(=O)OC [Example 159] |  | 0.01 | 1
COCCc1nc2c(N)nc3c(c2n1CCCCNC(=O)c1ccccc1)CCCC3 [Example 172] |  | 0.0001 | 1
COCCc1nc2c(N)nc3c(c2n1CCCCNC(=O)c1ccncc1)CCCC3 [Example 173] |  | 0.001 | 1
COCCc1nc2c(N)nc3c(c2n1CCCCNC(=O)Cc1ccccc1)CCCC3 [Example 174] |  | 0.001 | 1
COCCc1nc2c(N)nc3ccccc3c2n1CCCCNC(=O)[C@H]1CC(=O)N(C)[C@@H]1c1cccnc1 [Example 184, (2S,3S)-N-{4-[4-amino-2-(2-methoxyethyl)-1H-imidazo[4,5-c]quinolin-1-yl]butyl}-1-methyl-5-oxo-2-pyridin-3-ylpyrrolidine-3-carboxamide] |  | 0.12 | 1.11
CCCCc1nc2c(N)nc3ccccc3c2n1CCCNC(=O)c1cc2ccccc2cn1 [Example 188, N-[3-(4-amino-2-butyl-1H-imidazo[4,5-c]quinolin-1-yl)propyl]isoquinoline-3-carboxamide] |  | 0.37 | 1.11
Nc1nc2ccccc2c2c1ncn2CCCCCCCCNC(=O)c1ccccc1 [Example 191, N-[8-(4-amino-1H-imidazo[4,5-c]quinolin-1-yl)octyl]benzamide] |  | > 30 | > 30

Continued, in another order:

melting point | Structure (SMILES) | minimal effective concentration (interferon (α)) [µM] | minimal effective concentration [1] [µM]
217 to 219 °C | Nc1nc2ccccc2c2c1ncn2CCCCCNC(=O)c1ccccc1 (as salt: hydrochloride) [Example 10, N^1-[5-(4-Amino-1H-imidazo[4,5-c]quinolin-1-yl)pentyl]benzamide Hydrochloride] |  | 
265 to 270 °C | Nc1nc2ccccc2c2c1ncn2CCCNC(=O)c1ccccc1 (as salt: hydrochloride) [Example 11, N^1-[3-(4-Amino-1H-imidazo[4,5-c]quinolin-1-yl)propyl]benzamide Hydrochloride] |  | 
254 to 256 °C | Cl.Nc1nc2ccccc2c2c1ncn2CCCCNC(=O)c1ccccc1.O (hydrate or solvate) |  | 
139 °C (dec.) | Nc1nc2ccccc2c2c1ncn2CCCCNC(=O)c1cn(Cc2ccccc2)c2ccccc12 [Example 42, N^3-[4-(4-Amino-1H-imidazo[4,5-c]quinolin-1-yl)butyl]-1-benzyl-1H-3-indolecarboxamide] |  | 
188.6 to 189.5 °C | Nc1nc2ccccc2c2c1ncn2CCCCNC(=O)c1cccnc1 [Example 47, N^3-[4-(4-Amino-1H-imidazo[4,5-c]quinolin-1-yl)butyl]nicotinamide] |  | 
213 to 213.7 °C | Nc1nc2ccccc2c2c1ncn2CCCCNC(=O)c1ccncc1 [Example 48, N^4-[4-(4-Amino-1H-imidazo[4,5-c]quinolin-1-yl)butyl]isonicotinamide] |  | 
214.5 to 215.2 °C | Nc1nc2ccccc2c2c1ncn2CCCCNC(=O)c1ccnc2ccccc12 [Example 49, N^4-[4-(4-Amino-1H-imidazo[4,5-c]quinolin-1-yl)butyl]-4-quinolinecarboxamide] |  | 
118 °C (dec.) | COCCc1nc2c(N)nc3ccccc3c2n1CCCCNC(=O)c1cc(-c2ccccc2)nc2ccccc12 [Example 50, N^4-[4-(4-Amino-2-(2-methoxyethyl)-1H-imidazo[4,5-c]quinolin-1-yl)butyl]-2-phenyl-4-quinolinecarboxamide] |  | 
158 to 161 °C | CCCCCSc1ncccc1C(=O)NCCCCn1cnc2c(N)nc3ccccc3c21 [Example 51, N^3-[4-(4-Amino-1H-imidazo[4,5-c]quinolin-1-yl)butyl]-2-(pentylsulfanyl)nicotinamide] |  | 
125 to 129 °C | N#Cc1ccc(C(=O)NCCCCn2cnc3c(N)nc4ccccc4c32)cn1 [Example 52, N^3-[4-(4-Amino-1H-imidazo[4,5-c]quinolin-1-yl)butyl]-6-cyanonicotinamide] |  | 
144 to 148 °C (dec.) | Nc1nc2ccccc2c2c1ncn2CCCCNC(=O)c1ccc(Cl)nc1 [Example 53, N^3-[4-(4-Amino-1H-imidazo[4,5-c]quinolin-1-yl)butyl]-6-chloronicotinamide] |  | 
192 to 194 °C (dec.) | Nc1nc2ccccc2c2c1ncn2CCCCNC(=O)c1ccc(OCC(F)(F)F)nc1 [Example 54, N^3-[4-(4-Amino-1H-imidazo[4,5-c]quinolin-1-yl)butyl]-6-(2,2,2-trifluoroethoxy)nicotinamide] |  | 
78.1 to 79.9 °C | COCCc1nc2c(N)nc3ccccc3c2n1CCCCNC(=O)c1ccc2ccccc2n1 [Example 55, N^2-{4-[4-Amino-2-(2-methoxyethyl)-1H-imidazo[4,5-c]quinolin-1-yl]butyl}-2-quinolinecarboxamide] |  | 
76.1 to 79.9 °C | CC(C(=O)NCCCCn1cnc2c(N)nc3ccccc3c21)c1ccc(-c2ccccc2)c(F)c1 (stereo not drawn) [Example 56, N^1-[4-(4-Amino-1H-imidazo[4,5-c]quinolin-1-yl)butyl]-2-(2-fluoro-4-biphenylyl)propanamide] |  | 
61 to 63 °C | COCCc1nc2c(N)nc3ccccc3c2n1CCCCNC(=O)c1nccc2ccccc12 [Example 57, N^1-{4-[4-Amino-2-(2-methoxyethyl)-1H-imidazo[4,5-c]quinolin-1-yl]butyl}-1-isoquinolinecarboxamide] |  | 
90.5 to 91.5 °C | Nc1nc2ccccc2c2c1ncn2CCCCNC(=O)c1ccc(Oc2ccccc2)cc1 [Example 64, N^1-[4-(4-Amino-1H-imidazo[4,5-c]quinolin-1-yl)butyl]-4-phenoxybenzamide] |  | 
84.5 to 86.1 °C | Nc1nc2ccccc2c2c1nc(-c1ccccc1)n2CCCCNC(=O)c1cccnc1 [Example 66, N^3-[4-(4-Amino-2-phenyl-1H-imidazo[4,5-c]quinolin-1-yl)butyl]nicotinamide] |  | 

— patent US6756382B2, “Amide substituted imidazoquinolines” (3M Innovative Properties Company, priority 1999, dated 2004)
